Experimental data from patent US20230059124A1, “Novel TAS2R38 Bitter Taste Receptor Agonist” (priority 2021, published 2023).

Assays:
[1] = tested on: TAS2R38 gene; assay: DNA microarray gene expression, MatTek full thickness tissue (EFT-200); format: cell-based, Homo sapiens; conditions: 0.05 ml solubilized xanthohumol liquid formulation 5 mg/ml, 48 hours; ratio >=1.3 = up-regulated
Source text: The testing model used in this study is the MatTek full thickness tissue (EFT-200). This skin model consists of normal human-derived epidermal keratinocytes that have been cultured to form a multilayered, highly differentiated model of the human epidermis and human fibroblasts that have been seeded into a collagen matrix to form the dermis. This model also introduces a well-defined basement membrane between the epidermal and dermal layers, which is essential to enable in vivo like interactions between the keratinocytes and the fibroblasts.
Upon arrival, the MatTek ET-200 tissue was stored at 4° C. until used (they can be stored for up to 72 hours however tissue viability may decrease with prolonged storage). Prior to use, the tissues to be used were removed from the agarose-shipping tray and placed into a 6-well plate containing 2.0 ml of assay medium (37±2° C.). All of the agarose must be removed from the outside of the tissue culture insert since any residual agarose may prevent the assay medium from reaching the tissue. […]
At the end of the incubation any residual test material was removed from the tissues by rinsing them twice with at least 100 μl of PBS. […] These broader ranges are a more conservative judging criterion and account for possible sources of variation in fluorescence intensity that are not associated with the treatment. […]

[2] = tested on: TAS2R38 gene; assay: qPCR TAS2R38 gene expression in hTBEC 1 culture; format: cell-based, human; conditions: for Tas2R38 3prime 2^-ddct / Tas2R38 5prime 2^-ddct / Tas2R38C DS 2^-ddct / Tas2R38 3prime ddCT / Tas2R38 5prime ddCT / Tas2R38C DS ddCT: 1 μM; for Tas2R38 3prime 2^-ddct / Tas2R38 5prime 2^-ddct / Tas2R38C DS 2^-ddct: control = 1.000
Source text: (§1) Currently, very little is known about compounds that directly agonize and regulate TAS2R38 expression. Because of this, research related to the prenylflavonoid xanthohumol's effects on gene expression was compared with other TAS2R38 targeting compounds, namely sinigrin, a glucosinolate connected to the family of glucosides found in the Brassicaceae vegetable family and found in foods such as brussels sprouts and broccoli. […] selectively triggers the taster variant of the TAS2R38 receptor (Meyerhof, W. et al. The Molecular Receptive Ranges of Human TAS2R Bitter Taste Receptors. Chem Sense (2010) 35: 157-70.) […] was used as a comparator at a concentration of 1 the same concentration as xanthohumol (1 μM). Two hTBEC cultures were selected for this initial study. hTBEC 1 is derived from one of the most bitter-responsive cultures, which has a moderate/moderately low basal gene expression level of TAS2R38. hTBEC 2 is derived from a culture that responds to bitter stimuli, but has a high response in particular to TAS2R38 expression compared with other hTBEC repositories. RNA was harvested from cultures treated cultures and control cultures at 1 μM lead compound at 24 and 48 hours post treatment. Following is a table that explains the experimental paradigm in full: [table] In an effort to establishing a comprehensive understanding of xanthohumol's effects on gene expression, 3 unique primer pairs to accurately capture the TAS2R38 gene were developed as cultures. […] The published NCBI genetic sequence for the region of chromosome 7q that encodes TAS2R38 and overlay map the SNP variant markers to ensure the primers cover strategic regions of the TAS2R38 gene. For probing TAS2R38, 3 individual primer pairs were used for a comprehensive view of how the compound may be “hitting” the gene.

[3] = tested on: TAS2R38 gene; assay: qPCR TAS2R38 gene expression in hTBEC 2 culture; format: cell-based, human; conditions: 1 μM; for Tas2R38 3prime 2^-ddct / Tas2R38 5prime 2^-ddct / Tas2R38C DS 2^-ddct: control = 1.000
Source text: as §1

[4] = hTBEC 1, 24 hour, vs control 24
[5] = hTBEC 1, 48 hour, vs control 48 hour
[6] = hTBEC 2, 24 hour, vs control 24
[7] = hTBEC 2, 48 hour, vs control 48 hour

SMILES | Tas2R38 3prime 2^-ddct ([2]; hTBEC 1, 24 hour) | Tas2R38 5prime 2^-ddct ([2]; hTBEC 1, 24 hour) | Tas2R38C DS 2^-ddct ([2]; hTBEC 1, 24 hour) | Tas2R38 3prime ddCT [2, 4] | Tas2R38 5prime ddCT [2, 4] | Tas2R38C DS ddCT [2, 4] | Tas2R38 3prime 2^-ddct ([2]; hTBEC 1, 48 hour) | Tas2R38 5prime 2^-ddct ([2]; hTBEC 1, 48 hour) | Tas2R38C DS 2^-ddct ([2]; hTBEC 1, 48 hour) | Tas2R38 3prime ddCT [2, 5] | Tas2R38 5prime ddCT [2, 5] | Tas2R38C DS ddCT [2, 5] | Tas2R38 3prime 2^-ddct ([3]; hTBEC 2, 24 hour) | Tas2R38 5prime 2^-ddct ([3]; hTBEC 2, 24 hour) | Tas2R38C DS 2^-ddct ([3]; hTBEC 2, 24 hour) | Tas2R38 3prime ddCT [3, 6] | Tas2R38 5prime ddCT [3, 6] | Tas2R38C DS ddCT [3, 6] | Tas2R38 3prime 2^-ddct ([3]; hTBEC 2, 48 hour) | Tas2R38 5prime 2^-ddct ([3]; hTBEC 2, 48 hour) | also measured
COc1cc(O)c(CC=C(C)C)c(O)c1C(=O)/C=C/c1ccc(O)cc1 [xanthohumol] | 2.024 | 3.983 | 2.785 | −1.017 | −1.994 | −1.478 | 0.664 | 1.368 | 4.109 | 0.591 | −0.452 | −2.039 | 2.013 | 2.609 | 1.779 | −1.009 | −1.383 | −0.831 | 0.995 | 0.624 | Ratio of Medians, TAS2R38 (NM_176817) up-regulation [1]: 21; up regulation of the TAS2R38 gene, higher than baseline or the Sinigrin control ([2]; FIG. 1, 1 μM, within 24 hours, culture not stated): approximately 4 ×; Tas2R38C DS 2^-ddct ([3]; hTBEC 2, 48 hour): 4.175; Tas2R38 3prime ddCT [3, 7]: 0.007; Tas2R38 5prime ddCT [3, 7]: 0.679; Tas2R38C DS ddCT [3, 7]: −2.062
C=CCC(=NOS(=O)(=O)O)S[C@@H]1O[C@H](CO)[C@@H](O)[C@H](O)[C@H]1O (stereo in doubt) [sinigrin, reference compound] | 0.988 | 1.142 | 1.023 | 0.017 | −0.192 | −0.033 | 0.983 | 1.027 | 1.716 | 0.025 | −0.038 | −0.779 | 0.600 | 0.553 | 0.657 | 0.736 | 0.616 | 0.605 | 1.436 | 1.317 | Tas2R38C DS 2^-ddct ([3]; hTBEC 2, 48 hour): 0.625; Tas2R38 3prime ddCT [3, 7]: −0.524; Tas2R38 5prime ddCT [3, 7]: −0.397; Tas2R38C DS ddCT [3, 7]: 0.677
